# In US20220324912A1, “THERAPEUTIC PEPTIDES” (COHBAR, INC., priority 2019, published 2022):
# Non-standard residues stand in square brackets, D forms with d. Residues, ends and D or L forms follow the SMILES beside them. No end group written: not given here.
# Columns and labels:
# [1] = tested on: 3T3-L1 mouse adipocytes; test: Free Fatty Acid Levels in 3T3-L1 Mouse Adipocytes (Example 12, 10 μM); format: cell-based
# Protocol: The effect of the peptides on fatty acid metabolism can be assessed using an assay of free fatty acid levels in cultured cells such as mouse adipocytes. Peptides were initially prepared as 10 mM stock in DMSO, diluted to 1 mM in H2O, and used at a final concentration of 10 μM (0.1% DMSO). […] After 20-22 hours, 1 nM isoproterenol was added to all wells except untreated controls and test peptides were replenished. Insulin at 100 nM was added to control wells. […] Free fatty acid concentrations in the media were determined using a Free Fatty Acid Assay kit (Zen-Bio) according to the manufacturer's instructions using a Cytation 3 plate reader at 540 nm (BioTek, Winooski, Vt.). Absorbance values were corrected for untreated background and expressed relative to isoproterenol treated cells. Treatment with isoproterenol (1 nM) alone was used as the free fatty acid level stimulatory control. The relative standard deviation of the isoproterenol control was <10%. […] Free fatty acid levels for insulin (100 nM) treatment were <5% of the isoproterenol control value.
# [2] = tested on: C2C12 cells; test: Cellular ROS Levels Induced by TBHP in C2C12 Cells (DCFDA); format: cell-based, mouse
# Protocol: The protective or synergistic effect of the peptides on cellular levels of reactive oxygen species (ROS) induced by oxidative stress can be assessed using an assay of ROS in cultured cells such as mouse myoblasts exposed to a suitable oxidative stress. Peptides were initially prepared as 10 mM stock in DMSO, diluted to 1 mM in H2O, and added at a final concentration of 10 μM (0.1% DMSO). […] TBHP was used at final concentration of 100 μM. Sulforaphane at final concentration of 10 µM was used as a protective control against TBHP induced ROS production. […] C2C12 cells were grown in DMEM supplemented with 20% FBS with 100 IU/ml penicillin and 100 μg/ml streptomycin. […] C2C12 cells were seeded at 7,500 cells per well on 96-well plates. […] After 18-20 hours of incubation the cells were loaded with DCFDA for 45 min. TBHP at 100 μM was then added to the appropriate wells for 1 hour. ROS activity was determined using a DCFDA Cellular ROS Detection Assay kit (Abcam, Cambridge, Mass.) according to the manufacturer's instructions. Fluorescence in each sample well on the plate was measured using a Cytation 3 plate reader at Ex/Em=485/535 nm (BioTek, Winooski, Vt.). Activity was calculated relative to TBHP control. The relative standard deviation of the sulforaphane control was <20%. The ROS level produced by the sulforaphane control in the presence of TBHP was 52% of the TBHP control.
# [3] = tested on: DIO mice; test: Metabolic parameters in DIO mice, twice daily intraperitoneal, 10 days (Example 16); format: in vivo, mouse; conditions: 5 mg/kg, male DIO mice
# Protocol: Male C57BL/6 mice were maintained on a high fat diet for 18 weeks to develop diet induced obesity. Animals were randomized to treatment groups based on blood glucose levels and body weight. The peptides of the invention were administered to groups of male DIO mice twice daily by intraperitoneal injection at a dose of 5 mg/kg/dose for 10 days (N=8 animals per treatment group). An additional group of male DIO mice (n=8) received vehicle (water) alone administered twice daily by intraperitoneal injection. Body weight, blood glucose levels and food intake were monitored. Body mass distribution (fat vs lean) was determined by quantitative whole body NMR prior to dosing and at the end of dosing.
# [4] = tested on: C2C12 cells; test: Cell Proliferation in C2C12 Cells (Cyquant DNA dye); format: cell-based, mouse
# Protocol: The effect of the peptides on cell proliferation was assessed using a DNA dye binding assay in cultured cells such as mouse myoblast cells. Peptides were initially prepared as 10 mM stock in DMSO, diluted to 1 mM in H2O, and added at a final concentration of 10 μM (0.1% DMSO). Lovastatin was used as a growth arrest control at final concentration of […]. […] C2C12 cells were grown in DMEM supplemented with 20% FBS with 100 IU/ml penicillin and 100 μg/ml streptomycin. […] C2C12 cells were seeded at 800 cells per well on 96-well plates. […] Cell proliferation was determined using Cyquant Direct Nucleic Acid Stain (Thermo Fisher Scientific, Waltham, Mass.) according to the manufacturer's instructions. Fluorescence for each sample well on the plate was measured using a Cytation 3 plate reader at Ex/Em=495/535 nm (BioTek, Winooski, Vt.). Activity was calculated relative to 0.1% DMSO untreated control. The relative standard deviation for the lovastatin control was <27%. The cell proliferation for the lovastatin control was <25% of the value for untreated control.
# [5] = tested on: Caspase 3/7 in MDA-MB-231 cells; test: Caspase 3/7 Activity in MDA-MB-231 Cells (Caspase-Glo 3/7); format: cell-based, human
# Protocol: The effect of the peptides on cell death/survival can be assessed using a caspase-3 assay. Peptides were dissolved with DMSO at 10 mM stock. […] Staurosporine (Selleckchem) was dissolved with DMSO at 1 mM stock. Caspase-Glo 3/7 Assay Reagent was purchased from Promega (Madison, Wis.). MDA-MB-231 human breast cancer cell line was purchased from American Type Culture Collection (Manassas, Va.). MDA-MB-231 cells were grown in DMEM Medium supplemented with 10% FBS. 100 μg/ml penicillin and 100 μg/ml streptomycin were added to the culture medium. Cultures were maintained at 37° C. in a humidified atmosphere of 5% CO2 and 95% air. MDA-MB-231 cells were incubated with test peptides in duplicate at 10 μM at 37° C. in a humidified atmosphere of 5% CO2 and 95% air for 18 hours. 25 μl of Caspase-Glo 3/7 Assay Reagent was added to each well and incubated at 37° C., 5% CO2 for 1 hour. Luminescence for each sample well on the plate was measured by Envision 2104 Multilabel Reader (PerkinElmer, Santa Clara, Calif.). Activity was calculated relative to DMSO control.
# [6] = tested on: MCF-7 cells; conditions: human, 72 hours, 10 μM
# Protocol: Peptides and reference compound staurosporine (Selleckchem) were dissolved with DMSO at 10 mM stock. CellTiter 96® AQueous One Solution Reagent (MTS assay reagent) was purchased from Promega (Madison, Wis.). MCF-7 human breast cancer cell line was purchased from American Type Culture Collection (Manassas, Va.). MCF-7 cells were grown in EMEM Medium supplemented with 10% FBS and 0.01 mg/ml human recombinant insulin. 100 μg/ml penicillin and 100 μg/ml streptomycin were added to the culture medium. Cells were incubated with test peptides at 10 μM at 37° C. in a humidified atmosphere of 5% CO2 and 95% air for 72 hours. 5 μl of CellTiter 96® AQueous One Solution Reagent (MTS assay reagent) was added to each well and incubated at 37° C., 5% CO2 for 5 hours. Absorbance at 492 nm was recorded by Envision 2104 Multilabel Reader. Treatment with DMSO alone was used as the cell viability activity control.
# [7] = tested on: 3T3-L1 adipocytes; test: Free Fatty Acid Levels in 3T3-L1 Adipocytes (Example 4, 25 μM); format: cell-based, mouse
# Protocol: Following 12-15 days' differentiation, test peptides were added to a final concentration of 25 μM and incubated for 20-22 hours in Adipocyte Maintenance Medium. After 20-22 hours, isoproterenol (1 nM) was added to all wells except untreated controls and test peptides were replenished. Cells were incubated for a further 3 hours in Assay Buffer (Zen-Bio). Free fatty acid concentrations in the media were determined using a Free Fatty Acid Assay Kit (Zen-Bio) according to the manufacturer's instructions using a plate reader (540 nm). Absorbance values were corrected for untreated background and expressed relative to isoproterenol treated cells. Treatment with isoproterenol (1 nM) alone was used as the free fatty acid level stimulatory control. The relative standard deviation of the isoproterenol control was <10%. […] Free fatty acid levels for insulin (100 nM) treatment were <5% of the isoproterenol control value.
# [8] = tested on: MDA-MB-231 cells; test: Cell viability, MTS Assay in MDA-MB-231 Cells; format: cell-based; conditions: human, 72 hours
# Protocol: Test compounds and reference compound staurosporine (Selleckchem) were all dissolved with DMSO at 10 mM stock. […] Activity was calculated relative to DMSO control. […] Cell viability was 3% of the DMSO control value for Staurosporine (10 uM).
# [9] = Stability in Mouse Plasma; format: in vitro ADME; conditions: pooled mouse plasma, 37° C., peptides 100 DM
# Protocol: Peptides (100 DM) were incubated in pooled mouse plasma at 37° C. and samples were removed and immediately analyzed for the concentration of intact peptide by LC/MS/MS over the course of 3 hours. The percent of peptide remaining in plasma at each time point was calculated relative to the initial peak area (Table 9).
# [10] = tested on: DIO mice; test: Effects in Diet Induced Obese (DIO) mice, once daily subcutaneous, 10 days (Example 9); format: in vivo, mouse; conditions: for Difference from Vehicle Control: Decrease from Baseline in Blood Glucose / Difference from Vehicle Control: Decrease from Baseline in Body Weight / Difference from Vehicle Control: Decrease from Baseline in Fat Mass: male DIO mice
# Protocol: C57BL/6 mice were maintained on a high fat diet for 18 weeks to develop diet induced obesity. Animals were randomized to treatment groups based on blood glucose levels and body weight. The peptide of SEQ ID NO: 9 was administered to two groups of male DIO mice once daily by subcutaneous injection at doses of 5.0 or 15 mg/kg/dose for 10 days (N=8 animals per treatment group). An additional group of male DIO mice (n=8) received vehicle (water) alone. Body weight, blood glucose levels and food intake were monitored. Body mass distribution (fat vs lean) was determined by quantitative whole body NMR prior to dosing and at the end of dosing.
molecule,measurement,setting,value
14 (MRLPGPAILTNPVLGWVWV) [compound 14],"Free fatty acid levels, Percent of Isoproterenol Control Activity","[1]; peptides 10 μM, 20-22 hours then 3 hours with isoproterenol 1 nM, 3T3-L1 mouse adipocytes",80.8%
same,"Cellular ROS levels induced by TBHP, Percent of Control","[2]; peptides 10 μM, 18-20 hours, then TBHP 100 μM 1 hour, relative to TBHP control",106.0%
same,Difference from Vehicle Control: Decrease from Baseline in Blood Glucose,[3],-6.12 mg/dL
same,Difference from Vehicle Control: Decrease from Baseline in Body Weight,[3],−2.48%
same,Difference from Vehicle Control: Decrease from Baseline in Fat Mass,[3],-0.93 g
same,"Cell proliferation, Percent of Control","[4]; peptides 10 μM, 72 hours with readdition every 24 hours, relative to 0.1% DMSO control",93.2%
CC[C@H](C)[C@H](NC(=O)[C@H](C)NC(=O)[C@H](CCCNC(=N)N)NC(=O)[C@H](C)NC(=O)[C@@H](NC(=O)[C@H](CCCNC(=N)N)NC(=O)[C@H](CCCNC(=N)N)NC(=O)[C@@H](NC(=O)[C@H](C)NC(=O)[C@H](CC(C)C)NC(=O)[C@@H](N)CCSC)C(C)C)[C@@H](C)O)C(=O)NCC(=O)O [compound 2] (H-MLAVRRTARAIG-OH; N-terminus and C-terminus assumed),"Caspase 3/7 activity, Percent of Control Activity","[5]; peptides 10 μM, 18 hours, relative to DMSO control",71%
same,"MTS cell viability, Percent of Control Activity",[6],39%
same,"Free fatty acid levels, Percent of Control Value (percent isoproterenol control)","[7]; peptides 25 μM, 20-22 hours then 3 hours with isoproterenol 1 nM, 3T3-L1 adipocytes",76%
same,"MTS cell viability, Percent of Control Activity",[8],78%
CC[C@H](C)[C@H](NC(=O)[C@H](C)NC(=O)[C@H](CO)NC(=O)CNC(=O)[C@@H]1CCCN1C(=O)[C@H](CC(C)C)NC(=O)[C@H](CCCNC(=N)N)NC(=O)[C@@H](N)CCSC)C(=O)N[C@@H](CC(C)C)C(=O)N[C@H](C(=O)N[C@@H](CC(N)=O)C(=O)N1CCC[C@H]1C(=O)N[C@H](C(=O)N[C@@H](CC(C)C)C(=O)NCC(=O)N[C@@H](Cc1c[nH]c2ccccc12)C(=O)N[C@H](C(=O)N[C@@H](Cc1c[nH]c2ccccc12)C(=O)N[C@H](C(=O)O)C(C)C)C(C)C)C(C)C)[C@@H](C)O [compound 7] (H-MRLPGSAILTNPVLGWVWV-OH),"MTS cell viability, Percent of Control Activity",[6],64%
same,"MTS cell viability, Percent of Control Activity",[8],88%
same,% Remaining at 0 min,[9]; 0 min,100%
same,"remaining at 0.25 h, 100 DM",[9]; 15 min,70.9%
same,"remaining at 0.5 h, 100 DM",[9]; 30 min,68.2%
same,"remaining at 1 h, 100 DM",[9]; 60 min,52.6%
same,"remaining at 2 h, 100 DM",[9]; 120 min,31.6%
same,"remaining at 3 h, 100 DM",[9]; 180 min,18.1%
"CC[C@H](C)C(=O)O[C@H]1C[C@@H](C)C=C2C=C[C@H](C)[C@H](CC[C@@H]3C[C@@H](O)CC(=O)O3)[C@H]21 [lovastatin, reference compound]","Cell proliferation, % of the value for untreated control","[4]; lovastatin 10 μM, 72 hours",< 25%
"CN[C@@H]1C[C@H]2O[C@@](C)([C@@H]1OC)n1c3ccccc3c3c4c(c5c6ccccc6n2c5c31)C(=O)NC4 [staurosporine, reference compound]","Caspase activity, % of background-corrected DMSO control value",[5]; staurosporine 0.05 nM,130%
"C[S+]([O-])CCCCN=C=S (centres unmarked) [sulforaphane, reference compound]","ROS level in the presence of TBHP, % of the TBHP control",[2]; sulforaphane 10 µM,52%
RLPGS(dA)ILTNPVLGWVWV (RLPGS[dA]ILTNPVLGWVWV) [SEQ ID NO: 9],Difference from Vehicle Control: Decrease from Baseline in Blood Glucose,[10]; 5.0 mg/kg/dose,7.0 mg/dL
same,Difference from Vehicle Control: Decrease from Baseline in Body Weight,[10]; 5.0 mg/kg/dose,1.79%
same,Difference from Vehicle Control: Decrease from Baseline in Fat Mass,[10]; 5.0 mg/kg/dose,0.56 g
same,Difference from Vehicle Control: Decrease from Baseline in Blood Glucose,[10]; 15.0 mg/kg/dose,18.0 mg/dL
same,Difference from Vehicle Control: Decrease from Baseline in Body Weight,[10]; 15.0 mg/kg/dose,1.96%
same,Difference from Vehicle Control: Decrease from Baseline in Fat Mass,[10]; 15.0 mg/kg/dose,0.86 g
same,Body weight loss compared to vehicle (in words),[10]; 5.0 or 15 mg/kg/dose,greater body weight loss
same,Decrease in fat mass from baseline compared to vehicle (in words),[10]; 5.0 or 15 mg/kg/dose,greater decrease in fat mass
same,Reduction in blood glucose compared to vehicle (in words),[10]; 5.0 or 15 mg/kg/dose,greater reduction in blood glucose
insulin [reference compound],"Free fatty acid levels, % of isoproterenol control value","[1]; insulin 100 nM, Example 12",< 5%
same,"Free fatty acid levels, % of isoproterenol control value","[7]; insulin 100 nM, Example 4",< 5%
